SMILES strings stand for the structures. Counter-ions that a name gives are not always drawn.

The target in this test is kinase domain of IRE1 alpha (His-tagged kinase dead construct KR, AA G547-L977, D688N) (Homo sapiens (Human), UniProt O75460, D688N). Nature of the test: IRE1α TR-FRET competition binding assay. To be noted: competition with Kinase Tracer 236, 0.1 μM; one hour at room temperature. Put shortly: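 Sf9-expressed kinase-dead KR construct (0.006 μM final) pre-incubated 1 h at 4° C with Eu anti-His antibody (0.002 μM) in HEPES pH 7.5/MgCl2/Brij/DTT buffer; Kinase Tracer 236 (ATP-competitive probe, 0.1 μM final) added with compound. 1 h at room temperature; tracer displacement read by TR-FRET (665/615 nm).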
Chain of kinase domain of IRE1 alpha (His-tagged kinase dead construct KR, AA G547-L977, D688N) (O75460 547-977 D688N): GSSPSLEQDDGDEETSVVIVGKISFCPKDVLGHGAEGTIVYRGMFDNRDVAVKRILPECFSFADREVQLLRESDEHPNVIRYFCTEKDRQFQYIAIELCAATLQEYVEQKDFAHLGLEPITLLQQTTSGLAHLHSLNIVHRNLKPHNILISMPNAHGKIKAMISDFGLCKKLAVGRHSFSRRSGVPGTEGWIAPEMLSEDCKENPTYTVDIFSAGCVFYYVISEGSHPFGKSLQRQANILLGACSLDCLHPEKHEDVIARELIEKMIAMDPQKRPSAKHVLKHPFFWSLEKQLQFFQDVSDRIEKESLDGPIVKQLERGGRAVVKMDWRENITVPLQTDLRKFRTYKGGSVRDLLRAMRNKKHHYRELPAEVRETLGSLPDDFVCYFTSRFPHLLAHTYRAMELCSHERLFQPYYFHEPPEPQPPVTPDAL
Regarding `O=S(=O)(CCC1CC1)Nc1c(F)cc(Oc2ncccc2-c2ccnc(N[C@@H]3CNC[C@@H](F)C3)n2)c(F)c1F` [Compound 267, 2-Cyclopropyl-N-(2,3,6-trifluoro-4-((3-(2-(((3S,5S)-5-fluoropiperidin-3-yl)amino)pyrimidin-4-yl)pyridin-2-yl)oxy)phenyl)ethane-1-sulfonamide], the IC50 – broadly, the concentration that gives 50% inhibition – came out at 2.2 nM.

As for `COCC1CNCC(Nc2nccc(-c3cccnc3Oc3cc(F)c(NS(=O)(=O)Cc4ccccc4)c(F)c3F)n2)C1` (single isomer, unassigned) [Compound 329, 1-Phenyl-N-(2,3,6-trifluoro-4-((3-(2-((5-(methoxymethyl)piperidin-3-yl)amino)pyrimidin-4-yl)pyridin-2-yl)oxy)phenyl)methanesulfonamide], the 50% inhibitory concentration (IC50) was determined as 12 nM.

For the compound `Cc1ccccc1CS(=O)(=O)Nc1c(F)cc(Oc2ncccc2-c2ccnc(N[C@@H]3CNC[C@@H](F)C3)n2)c(F)c1F` [Compound 386, 1-o-Tolyl-N-(2,3,6-trifluoro-4-((3-(2-(((3S,5S)-5-fluoropiperidin-3-yl)amino)pyrimidin-4-yl)pyridin-2-yl)oxy)phenyl)methanesulfonamide], the half-inhibitory concentration (IC50) amounted to 0.3 nM.

As for `CN(C)C1CCC(Nc2nccc(-c3cccnc3Oc3cc(F)c(NS(=O)(=O)Cc4ccccc4)c(F)c3F)n2)CC1F` (single isomer, unassigned) [Compound 306, N-(4-((3-(2-((4-(Dimethylamino)-3-fluorocyclohexyl)amino)pyrimidin-4-yl)pyridin-2-yl)oxy)-2,3,6-trifluorophenyl)-1-phenylmethanesulfonamide], the IC50 worked out at 43 nM.

The compound `C[C@@]1(F)CNC[C@@H](Nc2nccc(-c3cccnc3Oc3cc(F)c(NS(=O)(=O)CC4CC(F)(F)C4)c(F)c3F)n2)C1` [Compound 251, 1-(3,3-Difluorocyclobutyl)-N-(2,3,6-trifluoro-4-((3-(2-(((3S,5S)-5-fluoro-5-methylpiperidin-3-yl)amino)pyrimidin-4-yl)pyridin-2-yl)oxy)phenyl)methanesulfonamide] came in with an IC50 of 2.8 nM.

The compound `Cc1cc(NS(=O)(=O)Cc2ccccc2)cc(F)c1Oc1ncccc1-c1ccnc(N[C@H]2CC[C@H](N)CC2)n1` [Compound 119, N-(4-((3-(2-(((1r,4r)-4-aminocyclohexyl)amino)pyrimidin-4-yl)pyridin-2-yl)oxy)-3-fluoro-5-methylphenyl)-1-phenylmethanesulfonamide hydrochloride] had a half-maximal inhibitory concentration (IC50) of 13 nM.

In turn, `O=S(=O)(Cc1ccccn1)Nc1c(F)cc(Oc2ncccc2-c2ccnc(N[C@@H]3CNC[C@@H](F)C3)n2)c(F)c1F` [Compound 356, 1-(2-Pyridyl)-N-[2,3,6-trifluoro-4-[[3-[2-[[(3S,5S)-5-fluoro-3-piperidyl]amino]pyrimidin-4-yl]-2-pyridyl]oxy]phenyl]methanesulfonamide] displayed a half-inhibitory concentration (IC50) of 0.2 nM.

Consider `O=S(=O)(Cc1ccccc1)Nc1ccc(Oc2ncccc2-c2ccnc(N[C@H]3CCCNC3)n2)c(F)c1` [Compound 159, (S)-N-(3-fluoro-4-((3-(2-(piperidin-3-ylamino)pyrimidin-4-yl)pyridin-2-yl)oxy)phenyl)-1-phenylmethanesulfonamide], for which the IC50 amounted to 11 nM.

As to `CC(C)(C)CCCS(=O)(=O)Nc1ccc(Oc2ncccc2-c2ccnc(N[C@H]3CCCNC3)n2)c(F)c1F` [Compound 230, (S)-N-(2,3-difluoro-4-((3-(2-(piperidin-3-ylamino)pyrimidin-4-yl)pyridin-2-yl)oxy)phenyl)-4,4-dimethylpentane-1-sulfonamide], the IC50 is 14 nM.

In turn, `O=S(=O)(Cc1ccncc1)Nc1ccc(Oc2ncccc2-c2ccnc(N[C@H]3CCCNC3)n2)c(F)c1F` [Compound 234, (S)-N-(2,3-difluoro-4-(3-(2-(piperidin-3-ylamino)pyrimidin-4-yl)pyridin-2-yloxy)phenyl)-1-(pyridin-4-yl)methanesulfonamide] came in with an IC50 of 7 nM.

In turn, `O=S(=O)(Cc1ccccc1)Nc1c(F)cc(Oc2ncccc2-c2ccnc(CC3CCCNC3)n2)c(F)c1F` (single isomer, unassigned) [Compound 198, 1-Phenyl-N-(2,3,6-trifluoro-4-((3-(2-(3-piperidylmethyl)pyrimidin-4-yl)-2-pyridyl)oxy)phenyl)methanesulfonamide] had a 50% inhibitory concentration (IC50) of 1300 nM.

Compound `CC(C)(F)C1CNCC(Nc2nccc(-c3cccnc3Oc3cc(F)c(NS(=O)(=O)Cc4ccccc4)c(F)c3F)n2)C1` (single isomer, unassigned) [Compound 335, 1-Phenyl-N-(2,3,6-trifluoro-4-((3-(2-((5-(2-fluoropropan-2-yl)piperidin-3-yl)amino)pyrimidin-4-yl)pyridin-2-yl)oxy)phenyl)methanesulfonamide hydrochloride] yielded a half-inhibitory concentration (IC50) of 330 nM.

`CCC1CCN(c2ccc(Oc3ncccc3-c3ccnc(N[C@H]4CCCNC4)n3)c(F)c2F)C1=O` (single isomer, unassigned) [Compound 249] displayed an IC50 of 160 nM.

Turning to `Cc1cc(NS(=O)(=O)c2ccccc2Cl)cc(C)c1Oc1ncccc1-c1ccnc(N[C@H]2CCCNC2)n1` [Compound 131, (S)-2-Chloro-N-(3,5-dimethyl-4-((3-(2-(piperidin-3-ylamino)pyrimidin-4-yl)pyridin-2-yl)oxy)phenyl)benzenesulfonamide hydrochloride], the half-inhibitory concentration (IC50) worked out at 59 nM.

Compound `CC1(CF)CNCC(Nc2nccc(-c3cccnc3Oc3cc(F)c(NS(=O)(=O)Cc4ccccc4)c(F)c3F)n2)C1` (single isomer, unassigned) [Compound 294, 1-Phenyl-N-(2,3,6-trifluoro-4-((3-(2-((5-(fluoromethyl)-5-methylpiperidin-3-yl)amino)pyrimidin-4-yl)pyridin-2-yl)oxy)phenyl)methanesulfonamide] came in with a concentration for half-maximal inhibition (IC50) of 0.59 nM.

Compound `CCCS(=O)(=O)Nc1cc(C)c(Oc2ncccc2-c2ccnc(N[C@H]3CCCNC3)n2)cc1C` [Compound 126, (S)-N-(2,5-Dimethyl-4-((3-(2-(piperidin-3-ylamino)pyrimidin-4-yl)pyridin-2-yl)oxy)phenyl)propane-1-sulfonamide] showed an IC50 of 280 nM.

In turn, `O=S(=O)(Cc1ccccc1)Nc1c(F)cc(Oc2ncccc2-c2ccnc(NC3CC4CCCN(C4)C3)n2)c(F)c1F` (single isomer, unassigned) [Compound 287, N-(4-((3-(2-((1-azabicyclo[3.3.1]nonan-3-yl)amino)pyrimidin-4-yl)pyridin-2-yl)oxy)-2,3,6-trifluorophenyl)-1-phenylmethanesulfonamide hydrochloride] registered a concentration for half-maximal inhibition (IC50) of 1.5 nM.

In the case of `COCCN(C)[C@H]1CC[C@H](Nc2nccc(-c3cccnc3Oc3cc(F)c(NS(=O)(=O)Cc4ccc(F)cc4)c(F)c3F)n2)CC1` [Compound 341, 1-(4-Fluorophenyl)-N-(2,3,6-trifluoro-4-((3-(2-(((1r,4r)-4-((2-methoxyethyl)(methyl)amino)cyclohexyl)amino)pyrimidin-4-yl)pyridin-2-yl)oxy)phenyl)methanesulfonamide hydrochloride], the IC50 was 0.5 nM.

As to `O=S(=O)(Nc1cccc(Oc2ncccc2-c2ccnc(N[C@H]3CCCNC3)n2)c1)c1ccccc1Cl` [Compound 132, (S)-2-Chloro-N-(3-((3-(2-(piperidin-3-ylamino)pyrimidin-4-yl)pyridin-2-yl)oxy)phenyl)benzenesulfonamide hydrochloride], the IC50 worked out at 32 nM.

For `N#Cc1ccc(CS(=O)(=O)Nc2ccc(Oc3ncccc3-c3ccnc(N[C@H]4CCCNC4)n3)c(F)c2F)cc1` [Compound 166, (S)-1-(4-cyanophcnyl)-N-(2,3-difluoro-4-((3-(2-(piperidin-3-ylamino)pyrimidin-4-yl)pyridin-2-yl)oxy)phenyl)methanesulfonamide], the IC50 was found to be 3.5 nM.

`O=S(=O)(CC1(F)CC1)Nc1c(F)cc(Oc2ncccc2-c2ccnc(N[C@@H]3CNC[C@@H](F)C3)n2)c(F)c1F` [Compound 261, 1-(l-Fluorocyclopropyl)-N-(2,3,6-trifluoro-4-((3-(2-(((3S,5S)-5-fluoropiperidin-3-yl)amino)pyrimidin-4-yl)pyridin-2-yl)oxy)phenyl)methanesulfonamide] came in with a half-maximal inhibitory concentration (IC50) of 3.5 nM.

Compound `Cn1cc(S(=O)(=O)Nc2ccc(Oc3ncccc3-c3ccnc(N[C@H]4CCCNC4)n3)c(F)c2F)cn1` [Compound 222, (S)-N-(2,3-difluoro-4-((3-(2-(piperidin-3-ylamino)pyrimidin-4-yl)pyridin-2-yl)oxy)phenyl)-1-methyl-1H-pyrazole-4-sulfonamide] showed a 50% inhibitory concentration (IC50) of 240 nM.

For the compound `O=S(=O)(Cc1ccccc1)Nc1c(F)cc(Oc2ncccc2-c2ccnc(NC3CNCC4(C3)CC4(F)F)n2)c(F)c1F` (single isomer, unassigned) [Compound 298, N-(4-((3-(2-((1,1-Difluoro-5-azaspiro[2.5]octan-7-yl)amino)pyrimidin-4-yl)pyridin-2-yl)oxy)-2,3,6-trifluorophenyl)-1-phenylmethanesulfonamide], the IC50 is 1.8 nM.

Compound `O=S(=O)(Cc1ccccc1)Nc1ccc(Oc2ncccc2-c2ccnc(N[C@H]3CCCNC3)n2)c(F)c1Cl` [Compound 161, (S)—N-(2-Chloro-3-fluoro-4-((3-(2-(piperidin-3-ylamino)pyrimidin-4-yl)pyridin-2-yl)oxy)phenyl)-1-phenylmethanesulfonamide] registered an IC50 of 4.2 nM.

For `O=S(=O)(Nc1ccc(Oc2ncccc2-c2ccnc(N[C@H]3CCCNC3)n2)c(F)c1F)c1cccnc1` [Compound 214, (S)-N-(2,3-difluoro-4-((3-(2-(piperidin-3-ylamino)pyrimidin-4-yl)pyridin-2-yl)oxy)phenyl)pyridine-3-sulfonamide], the IC50 amounted to 44 nM.

Turning to `Cc1cc(Oc2ncccc2-c2ccnc(N[C@@H]3CNC[C@@](C)(F)C3)n2)c(F)c(F)c1NS(=O)(=O)Cc1ccccc1` [Compound 279, N-(2,3-Difluoro-4-((3-(2-(((3S,5S)-5-fluoro-5-methylpiperidin-3-yl)amino)pyrimidin-4-yl)pyridin-2-yl)oxy)-6-methylphenyl)-1-phenylmethanesulfonamide], the IC50 was 0.23 nM.

For the origin of these results see patent US12071425B2 (Genentech, Inc., priority 2018, dated 2024).
